Measured values taken from patent US20070259439A1, “Determination of antibiotic concentration in bone” (Wyeth, priority 2006, published 2007).
Several values for one entry are separate records, joined by “and”; a condition that tells them apart may be missing. Equal entries are not always repeated. Where two headings read alike, the source gives them in different places. Marks after values point to notes of the source that are not given here.

Key:
[1] = Stability of tigecycline in incurred rat bone and in extracted rat bone sample; type: physicochemical
Protocol: Stability tests for tigecycline in IncRB reference QC samples or incHB QC samples were conducted in 4 cycles of freeze/thaw for IncRB QC and (3 cycles for IncHB QC of −70° C./22° C.) and in standard bench top (22° C.) stability (4 hours for rat bone and 6 hours for human bone) tests. These tests occurred during sequential extraction from run 1 through run 3. Bench top stability of IncRB reference QC samples (4 hours at room temperature) and incurred human bone sample (6 hours at room temperature), and extracted tigecycline from the IncRB and incurred human reference QC samples in the autosampler at 4° C. were evaluated during the method validation. Autosampler stability of tigecycline in IncRB Group B sample (^14C) was employed as the sample pool because aliquots from IncRB Group A were exhausted from prior testing. Results were plotted as the peak area ratio against time. The 54-hour autosampler stability of incurred human bone was performed by comparing extracted samples injected immediate after extraction (baseline) with the same set of extracted samples re-injected after 54 hours of storage at 4° C., regressed with a standard curve injected immediately after extraction (baseline).

[2] = Antibiotic bone assay (LC/MS/MS): tigecycline concentration in incurred rat bone; type: in vivo; conditions: for concentration at 4 h: rat, femoral bone (pooled, ground), 3 mg/kg
Protocol: Incurred rat bone was harvested and prepared from rats administered an antibiotic. Two different groups of incurred rat bone were prepared. Group A (n=12) represented bone from rats administered a single dose of tigecycline and Group B (n=19) represented bone from rats administered multiple doses of tigecycline. Group A rats were intravenously administered a single dose of tigecycline at 3 mg/kg. At 4 hours post-dose, the rats were euthanized and the femoral bones were harvested. Group B rats were intravenously administered 3 mg/kg of ^14C-tigecycline, once daily, for 3 days. At 4 hours post-dose, on day 3, the rats were euthanized and the femoral bones were harvested.
Preparation of incurred rat bone sample: To prepare the bone for extraction, two femoral bones from each rat in each group were collected. Femoral bones were cleaned with a saline solution to remove blood and bone marrow. The bones were air-dried and combined to form two pooled samples of incurred rat bone, Group A and Group B. The femoral rat bone pools were ground for approximately 2 minutes in an industrial blender to produce bone particles <1 mm in diameter. The ground, pooled bone sample for each group was stored at −70° C. for later analysis.
Incurred rat bone (IncRB) QC sample: Approximately 0.1 g of IncRB (Group A), which was stored at −70° and thawed, was weighed and dissolved in 1.0 ml of the extraction solvent to create a mixture of bone and solvent. Then, 50 μl of extraction solvent were added to match the volume of working standard solutions added to RBCtrl calibrators or QC samples. For IncHB QC sample, the procedure is similar to rat bone except for using a human incurred bone sample and adding L-ascorbic acid solution prior to adding extraction solvent.
Approximately 100 mg of prepared IncRB and RBCtrl samples (or human control bone or incurred human bone) were accurately weighed and placed into 17×100 mm polypropylene tubes. One hundred twenty μL of stabilizing agent (100 mM ascorbic acid) was added to human bone samples (For the rat bone assay, it was proven that autosampler stability was improved by adding ascorbic acid). One ml of extraction solvent, 50 μl of each tigecycline working standard solution (or 50 μl of methanol for study samples) and 40 μl of working internal standard solution (5000 ng/ml [t-butyl-d9]-tigecycline in methanol) were added to each tube. All sample tubes were vortexed for about 60 seconds. A tissue homogenizing probe was introduced into the mixture (small particles of prepared bone samples in extraction solvent) to further break up the bone particles. The homogenizing probe was operated at a setting of 4 to 5 (˜10,000 rpm) for about 2 minutes until bone particles in the mixture became a cloudy, white homogenous suspension. The probe was removed from the suspension and cleaned between each sample preparation by immersion in 2 ml of water, operating for 30 to 60 seconds, immersion in 2 ml of methanol, operating for 30 to 60 seconds, and wiping dry. Each sample tube containing bone suspension was centrifuged at 3000 rpm, at room temperature, for about 5 minutes. The supernatant (200 μl) was removed and transferred to a 250-μl conical low volume polypropylene autosampler vial and recentrifuged for another 5 minutes before loading into the HPLC autosampler. A 20 μl aliquot of the supernatant was injected onto the LC/MS/MS for tigecycline determination.
Liquid chromatography separation procedures were carried out on a 50×2.0 mm (I.D., 3 μm) HPLC analytical column with a pre-column in-line solvent filer (2.0 μm PEEK filter) and a LC/MS switching valve. PEEK tubing ( 1/16 in.×0.005 in.) connected the separation module, analytical column, LC/MS switching valve, and mass spectrometer. The separation module included a refrigerated autosampler, an in-line degasser, and a quaternary solvent delivery system. The analytical column temperature was approximately 20° C.; autosampler temperature was maintained at 4° C. […]

**Q.** What does the source list for `CN(C)c1cc(NC(=O)CNC(C)(C)C)c(O)c2c1C[C@H]1C[C@H]3[C@H](N(C)C)C(O)=C(C(N)=O)C(=O)[C@@]3(O)C(O)=C1C2=O` [tigecycline, Tigecycline]?
**A.** Freeze/thaw stability in incurred rat bone ([1]; after 4 cycles of freeze/thaw (−70° C./22° C.)): stable; Bench top stability in incurred rat bone ([1]; after 4 hours at room temperature): stable; Stability of extracted tigecycline from IncRB samples ([1]; extracted sample at 4° C., no stabilizing agent): 8.5 h; Storage stability in incurred rat bone ([1]; stored at −70° C.): at least 5 months; Re-injection stability of extracted tigecycline ([1]; within 5 hours, no stabilizing agent): 5 re-injections; Tigecycline concentration in pooled incurred rat bone, Mean ± SD ([2]; Group A, single i.v. dose 3 mg/kg, Day 1, 4 hour, femoral bone pool of 12 rats, 5 replicates): 1048 ± 88^b ng/g; Tigecycline concentration in pooled incurred rat bone, Mean ± SD ([2]; Group B, multiple dose 3 mg/kg i.v. 14C-tigecycline once daily for 3 days, Day 3, 4 hour, pool of 19 rats, 5 replicates): 3192 ng/g and 3192 ± 93^b ng/g; concentration at 4 h ([2]; intravenous, Group A, single dose 3 mg/kg, Day 1, 4 hour, measured concentration divided by 0.771, read-out: Corrected Mean Conc. in rat bone): 1360 ng/g; concentration at 4 h ([2]; intravenous, Group B, multiple dose 3 mg/kg 14C-tigecycline, Day 3, 4 hour, measured concentration divided by 0.771, read-out: Corrected Mean Conc. in rat bone): 4140 ng/g; concentration at 4 h ([2]; intravenous, IncRB Group B extract used for the bioassay, read-out: Concentration of tigecycline in extracted rat bone sample as determined by LC/MS): 3400 ng/g; concentration at 4 h ([2]; iv, Group A, single i.v. dose 3 mg/kg, Day 1, 4 hour, femoral bone pool of 12 rats, 5 replicates, read-out: Tigecycline concentration in pooled incurred rat bone, Mean ± SD): 1050 ng/g; IncRB QC sample concentration (incurred rat bone Group A) ([2]; single i.v. 3 mg/kg, 4 hours post-dose, nominal value = mean of 3-day global inter-day validation (n = 15)): 987 ng/g and 987^a ng/g
